Laboratory results as given in patent US12338219B2, “Antimalarial agents” (Merck Sharp & Dohme LLC, priority 2019, dated 2025).

Test system: parasites (ring stage parasites, parasite growth)
Assay: Parasite LDH growth assay (Parasite Assay), antiparasite potency
Type: cell-based
Settings: 72 hours growth, LDH readout
Procedure, shortened: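 Ring-stage culture was adjusted to 0.7% parasitemia and 2% haematocrit in bicarbonate-buffered RPMI-Hepes with heat-inactivated human serum and 0.5% albumax, then added to compound. Plates were incubated 72 h at 37 °C in gassed humidified boxes, frozen at −80 °C overnight and thawed, and growth was read by LDH assay.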

SMILES	EC50 (72 h, Table 3) [nM]	other results
CC1(C)CC(=O)N([C@H](c2cccnc2)[C@@H]2C[C@H]2C(=O)NC2CC(C)(C)Oc3ccc(F)cc32)C(=N)N1 (single isomer, unassigned) [Example 98A]	–	EC50 (Table 3): 0.9 nM
CCC1(CC)CC(=O)N([C@H](c2cccnc2)[C@@H]2C[C@H]2C(=O)N[C@H]2c3ccccc3OC(C)(C)[C@@H]2O)C(=N)N1 [Example 11A]	4.1	–
CC1(C)CC(=O)N([C@@H](c2cncc(Cl)c2)[C@@H]2C[C@H]2C(=O)N[C@H]2C[C@H](C(F)(F)F)Oc3ccccc32)C(=N)N1 [Example 60B]	100	–
CC(C)C1(C)CC(NC(=O)[C@@H]2C[C@H]2[C@@H](c2cccnc2)N2C(=N)NC(C)(C)CC2=O)c2ccccc2O1 (single isomer, unassigned) [Example 81A]	–	EC50 (Table 3): 2.7 nM
CCC1(CC)CC(=O)N(C[C@@H]2C(C)[C@H]2C(=O)N[C@@H]2c3ccccc3C[C@H]2O)C(=N)N1 (some centres unmarked) [Example 33]	76	–
CCC1(CC)CC(=O)N([C@H](c2cccnc2)[C@H]2[C@H](C(=O)N[C@H]3CC(C)(C)Oc4ccccc43)C2(C)C)C(=N)N1 [Example 48A]	2.7	–
CC1(C)CC(=O)N(C[C@@H]2C[C@H]2C(=O)N[C@H]2CC(C)(C)Oc3ccc(F)cc32)C(=N)N1 [Example 71]	125	–
CC1(C)CC(=O)N([C@H](c2cccc(C#N)c2)[C@@H]2C[C@H]2C(=O)N[C@@H]2c3ccccc3OC(C)(C)[C@H]2O)C(=N)N1 [Example 51]	5.3	–
CC1(C)CC(=O)N([C@H](c2cccnc2)[C@@H]2C[C@H]2C(=O)N[C@@H]2CC(C)(C)Oc3c(C(F)(F)F)ccc(F)c32)C(=N)N1 [Example 115A]	6.6	–
CC1(C)CC(=O)N([C@H](c2cccnc2)[C@@H]2C[C@H]2C(=O)NC2CC(C)(C)Oc3ccc(F)cc32)C(=N)N1 (single isomer, unassigned) [Example 98B]	–	EC50 (Table 3): 2.2 nM
CC1(C)CC(=O)N([C@@H](c2ccc(C#N)cc2)[C@@H]2C[C@H]2C(=O)N[C@H]2CC(C)(C)Oc3ccccc32)C(=N)N1 [Example 45B]	220	–
CC1(C)CC(=O)N([C@H](c2cccnc2)[C@@H]2C[C@H]2C(=O)N[C@H]2CC(C)(C)Oc3c(C(F)(F)F)ccc(F)c32)C(=N)N1 [Example 115B]	1	–
COCC[C@H]([C@@H]1C[C@H]1C(=O)NC1CC(C)(C(C)C)Oc2ccccc21)N1C(=N)NC(C)(C)CC1=O (single isomer, unassigned) [Example 80C]	–	EC50 (Table 3): 14 nM
CCC1(CC)CC(=O)N([C@H](CCOC)[C@@H]2C[C@H]2C(=O)N[C@H]2CC(C)(C)Oc3ccccc32)C(=N)N1 [Example 1A]	1	–
CC1(C)CC(=O)N(C[C@@H]2C[C@H]2C(=O)N[C@H]2CC3(CCC3)Oc3ccccc32)C(=N)N1 [Example 135]	190	–
CC1[C@@H]([C@@H](c2cccnc2)N2C(=N)NC(C)(C)CC2=O)[C@@H]1C(=O)N[C@H]1CC(C)(C)Oc2ccccc21 (some centres unmarked) [Example 57A]	3.2	–
CCC1(CC)CC(=O)N(C(CC(C)OC)[C@@H]2C[C@H]2C(=O)N[C@H]2CC(C)(C)Oc3ccccc32)C(=N)N1 (single isomer, unassigned) [Example 142D]	–	EC50 (Table 4 (unit inferred)): 115 nM
CC1(C)CC(=O)N([C@H](c2cccnc2)[C@@H]2C[C@H]2C(=O)NC2CC(C)(C)Oc3ccc(C(F)(F)F)cc32)C(=N)N1 (single isomer, unassigned) [Example 109A]	–	EC50 (Table 3): 2.3 nM
COCC[C@H]([C@@H]1C[C@H]1C(=O)NC1CC(C)(C)Oc2c(F)cccc21)N1C(=N)NC(C)(C)CC1=O (some centres unmarked) [Example 111B]	–	EC50 (Table 3): 15 nM

SMILES	EC50 (72 h, Table 3) [nM]	other results
CCC1C[C@H](NC(=O)[C@@H]2C[C@H]2CN2C(=N)NC(C)(C)CC2=O)c2ccccc2O1 (single isomer, unassigned) [Example 133B]	–	EC50 (Table 3): 100 nM
CC1(C)CC(=O)N(C[C@@H]2C[C@H]2C(=O)N[C@H]2CC(C)(C)Oc3cccc(OC(F)(F)F)c32)C(=N)N1 [Example 118]	63	–
CCC1(CC)CC(=O)N(C[C@H]2C(C(=O)N[C@@H]3c4ccccc4OC(C)(C)[C@H]3O)C2(F)F)C(=N)N1 (some centres unmarked) [Example 18A]	39	–
CCC1(CC)CC(=O)N(C(CC(C)OC)[C@@H]2C[C@H]2C(=O)N[C@H]2CC(C)(C)Oc3ccccc32)C(=N)N1 (single isomer, unassigned) [Example 142A]	–	EC50 (Table 4 (unit inferred)): 1.9 nM
CC1(C)CC(=O)N([C@@H](c2cncc(Cl)c2)[C@@H]2C[C@H]2C(=O)N[C@H]2CC(C)(C)Oc3ccccc32)C(=N)N1 [Example 58A]	210	–
CCC1(CC)CC(=O)N([C@H](CCOC)[C@@H]2C[C@H]2C(=O)N[C@@H]2CC(C)(C)Oc3ccccc32)C(=N)N1 [Example 141]	–	EC50 (72 h, Table 4 (unit inferred)): 4.7 nM
COc1cccc2c1C(NC(=O)[C@@H]1C[C@H]1[C@@H](c1cccnc1)N1C(=N)NC(C)(C)CC1=O)CC(C)(C)O2 (some centres unmarked) [Example 96A]	2.7	–
COCC[C@H]([C@@H]1C[C@H]1C(=O)N[C@@H]1CC(C)(C)Oc2cccc(OC(F)(F)F)c21)N1C(=N)NC(C)(C)CC1=O [Example 107B]	11	–
CCC1(CC)CC(=O)N([C@H](CCOC)[C@@H]2C[C@H]2C(=O)NC2CC(C)(C)Oc3c(Cl)cccc32)C(=N)N1 (some centres unmarked) [Example 148B]	–	EC50 (Table 4 (unit inferred)): 1.9 nM
CCC1(C)CC(NC(=O)[C@@H]2C[C@H]2[C@@H](CCOC)N2C(=N)NC(C)(C)CC2=O)c2ccccc2O1 (single isomer, unassigned) [Example 75B]	–	EC50 (Table 3): 7.5 nM
COCC[C@H]([C@@H]1C[C@H]1C(=O)N[C@H]1CC(C)(C)Oc2cc(C)c(C)cc21)N1C(=N)NC(C)(C)CC1=O [Example 138A]	7.4	–
CCC1(CC)CC(=O)N([C@H](CCOC)[C@@H]2C[C@H]2C(=O)N[C@@H]2CC(C)(C)Oc3ccccc32)C(=N)N1 [Example 1B]	250	–
CCC1(CC)CC(=O)N([C@@H](c2cccnc2)[C@H]2[C@H](C(=O)N[C@H]3C[C@H](C(F)(F)F)Oc4ccccc43)C2(C)C)C(=N)N1 [Example 44A]	8.3	–
CCC1(CC)CC(=O)N([C@H](CCOC)[C@@H]2C[C@H]2C(=O)N[C@H]2C[C@H](C(F)(F)F)Oc3ccccc32)C(=N)N1 [Example 14]	0.9	–
CCC1(CC)CC(=O)N([C@H](CCOC)[C@@H]2C[C@H]2C(=O)NC2CC(C)(C)Oc3cccc(Cl)c32)C(=N)N1 (some centres unmarked) [Example 149A]	–	EC50 (72 h, Table 4 (unit inferred)): 1 nM
COCC[C@H]([C@@H]1C[C@H]1C(=O)N[C@@H]1CC(C)(C)Oc2cc(C)c(C)cc21)N1C(=N)NC(C)(C)CC1=O [Example 138B]	18	–
CCC1(CC)CC(NC(=O)[C@@H]2C[C@H]2[C@@H](CCOC)N2C(=N)NC(C)(C)CC2=O)c2ccccc2O1 (some centres unmarked) [Example 92B]	–	EC50 (Table 3): 7.2 nM
CC1(C)CC(=O)N(C(c2cccc(C#N)c2)[C@@H]2C[C@H]2C(=O)NC2CC(C)(C)Oc3ccc(F)cc32)C(=N)N1 (some centres unmarked) [Example 53B]	–	EC50 (Table 3): 2.1 nM
CCC1(CC)CC(=O)N(C[C@@H]2C[C@H]2C(=O)N[C@@H]2c3ccccc3C[C@H]2O)C(=N)N1 [Example 6B]	269	–

SMILES	EC50 (72 h, Table 3) [nM]	other results
COCC[C@H]([C@@H]1C[C@H]1C(=O)N[C@H]1CC(C)(C)Oc2cccc(F)c21)N1C(=N)NC(C)(C)CC1=O [Example 88A]	5.2	–
CC1(C)CC(=O)N([C@H](c2cccnc2)[C@@H]2C[C@H]2C(=O)N[C@@H]2CC(C)(C)Oc3cc(Cl)ccc32)C(=N)N1 [Example 91B]	2.7	–
CCC1(CC)CC(=O)N([C@H](c2cccnc2)[C@@H]2C[C@H]2C(=O)N[C@@H]2c3ccccc3C[C@H]2O)C(=N)N1 [Example 10]	27	–
COCC[C@H]([C@@H]1C[C@H]1C(=O)N[C@@H]1CC(C)(C)Oc2cc(Cl)ccc21)N1C(=N)NC(C)(C)CC1=O [Example 89B]	22	–
CCC1(CC)CC(=O)N([C@@H](c2cccnc2)[C@H]2[C@H](C(=O)N[C@H]3CC(C)(C)Oc4ccccc43)C2(C)C)C(=N)N1 [Example 48B]	7.4	–
CC1(C)CC(=O)N(C(c2cccnc2)[C@H]2[C@H](C(=O)N[C@H]3CC(C)(C)Oc4ccccc43)C2(C)C)C(=N)N1 (some centres unmarked) [Example 49B]	–	EC50 (Table 3): 14 nM
COCC[C@H]([C@@H]1C[C@H]1C(=O)N[C@H]1CC(C)(C)Oc2ccc(C)cc21)N1C(=N)NC(C)(C)CC1=O [Example 132]	6.7	–
CCC1(CC)CC(=O)N(C[C@@H]2C(C)[C@H]2C(=O)N[C@H]2C[C@H](C(F)(F)F)Oc3ccccc32)C(=N)N1 (some centres unmarked) [Example 28B]	–	EC50 (Table 3): 14 nM
CC1[C@@H]([C@H](c2cccnc2)N2C(=N)NC(C)(C)CC2=O)[C@@H]1C(=O)N[C@H]1CC(C)(C)Oc2ccccc21 (some centres unmarked) [Example 57B]	100	–
Cc1ccc2c(c1)[C@@H](NC(=O)[C@@H]1C[C@H]1CN1C(=N)NC(C)(C)CC1=O)CC(C)(C)O2 [Example 128]	280	–
COc1cncc([C@H]([C@@H]2C[C@H]2C(=O)N[C@H]2C[C@H](C(F)(F)F)Oc3ccccc32)N2C(=N)NC(C)(C)CC2=O)c1 [Example 41]	1.1	–
CCC1(CC)CC(=O)N(C[C@@H]2C(C)[C@H]2C(=O)N[C@H]2CC(C)(C)Oc3ccccc32)C(=N)N1 (single isomer, unassigned) [Example 25B]	–	EC50 (Table 3): 25 nM
CCC1(CC)CC(=O)N(CC2C(C(=O)N[C@H]3C[C@H](C(F)(F)F)Oc4ccccc43)C2(C)C)C(=N)N1 (some centres unmarked) [Example 31A]	215	–
CCC1(CC)CC(=O)N(C[C@@H]2C(C)[C@H]2C(=O)N[C@H]2CC(C)(C)Oc3ccccc32)C(=N)N1 (single isomer, unassigned) [Example 25A]	–	EC50 (Table 3): 84 nM
CCC1(CC)CC(=O)N(C(CC(C)OC)[C@@H]2C[C@H]2C(=O)N[C@H]2CC(C)(C)Oc3ccccc32)C(=N)N1 (single isomer, unassigned) [Example 142B]	–	EC50 (Table 4 (unit inferred)): 0.7 nM
CCC1(CC)CC(=O)N(C[C@@H]2C(C)[C@H]2C(=O)N[C@H]2C[C@H](C(F)(F)F)Oc3ccccc32)C(=N)N1 (some centres unmarked) [Example 28A]	12	–
CC1(C)CC(=O)N(C[C@@H]2C[C@H]2C(=O)N[C@H]2CC(C)(C)Oc3cccc(Cl)c32)C(=N)N1 [Example 119]	26	–
COc1cncc([C@H]([C@@H]2C[C@H]2C(=O)N[C@@H]2c3ccccc3OC(C)(C)[C@H]2O)N2C(=N)NC(C)(C)CC2=O)c1 [Example 42]	18.4	–
